{"source": "paper PMC11475281", "about": "“A Novel Liver Cancer-Selective Histone Deacetylase Inhibitor Is Effective against Hepatocellular Carcinoma and Induces Durable Responses with Immunotherapy” (ACS Pharmacology & Translational Science, 2024)", "key": {"[1]": {"test_system": "Hep-G2-Red-FLuc intrahepatic tumors", "assay": "Orthotopic xenograft model of Hep-G2-Red-FLuc human HCC", "type": "in vivo, mice", "from_the_text": "Next, we evaluated the effects of STR-V-53 on tumor growth in an orthotopic murine model of Hep-G2-Red-FLuc Bioware Brite Cell Line (PerkinElmer) in mice. Mice (6–8 weeks old) were orthotopically implanted through a direct intrahepatic artery injection with Hep-G2-Red-FLuc cells according to published protocols.[38] We used the Red-Fluc expression to confirm tumor implantation by bioluminescent imaging using IVIS. Treatment began after imaging confirmed the establishment of intrahepatic tumors (approximately 7 days). Mice were grouped into cohorts with similar average relative chemiluminescence. Tumor-bearing mice in the treatment groups were injected daily with 200 μL of solution of STR-V-53, SORA, or a combination of STR-V-53 and SORA for 21 days via the i.p. route. No treatment group received vehicle only. After treatment, mice were imaged again, sacrificed, and liver samples were harvested to determine the effects of treatment on tumor size by measurement with calipers. […] Moreover, the combination therapy of SORA (10 mg/kg) and STR-V-53 (25 mg/kg) is more efficacious than either drug as a standalone agent.\nSignaling Technology), respectively, for immunostaining. […]\n(Armenian Hamster monoclonal antibody, clone 2H8, Millipore). Positive cells were counted from five random fields for each HCC tissue section. […]\nmonitored by high-frequency ultrasonography. […]"}, "[2]": {"target": "hERG (Homo sapiens, UniProt Q12809)", "sequence (Q12809 whole entry)": "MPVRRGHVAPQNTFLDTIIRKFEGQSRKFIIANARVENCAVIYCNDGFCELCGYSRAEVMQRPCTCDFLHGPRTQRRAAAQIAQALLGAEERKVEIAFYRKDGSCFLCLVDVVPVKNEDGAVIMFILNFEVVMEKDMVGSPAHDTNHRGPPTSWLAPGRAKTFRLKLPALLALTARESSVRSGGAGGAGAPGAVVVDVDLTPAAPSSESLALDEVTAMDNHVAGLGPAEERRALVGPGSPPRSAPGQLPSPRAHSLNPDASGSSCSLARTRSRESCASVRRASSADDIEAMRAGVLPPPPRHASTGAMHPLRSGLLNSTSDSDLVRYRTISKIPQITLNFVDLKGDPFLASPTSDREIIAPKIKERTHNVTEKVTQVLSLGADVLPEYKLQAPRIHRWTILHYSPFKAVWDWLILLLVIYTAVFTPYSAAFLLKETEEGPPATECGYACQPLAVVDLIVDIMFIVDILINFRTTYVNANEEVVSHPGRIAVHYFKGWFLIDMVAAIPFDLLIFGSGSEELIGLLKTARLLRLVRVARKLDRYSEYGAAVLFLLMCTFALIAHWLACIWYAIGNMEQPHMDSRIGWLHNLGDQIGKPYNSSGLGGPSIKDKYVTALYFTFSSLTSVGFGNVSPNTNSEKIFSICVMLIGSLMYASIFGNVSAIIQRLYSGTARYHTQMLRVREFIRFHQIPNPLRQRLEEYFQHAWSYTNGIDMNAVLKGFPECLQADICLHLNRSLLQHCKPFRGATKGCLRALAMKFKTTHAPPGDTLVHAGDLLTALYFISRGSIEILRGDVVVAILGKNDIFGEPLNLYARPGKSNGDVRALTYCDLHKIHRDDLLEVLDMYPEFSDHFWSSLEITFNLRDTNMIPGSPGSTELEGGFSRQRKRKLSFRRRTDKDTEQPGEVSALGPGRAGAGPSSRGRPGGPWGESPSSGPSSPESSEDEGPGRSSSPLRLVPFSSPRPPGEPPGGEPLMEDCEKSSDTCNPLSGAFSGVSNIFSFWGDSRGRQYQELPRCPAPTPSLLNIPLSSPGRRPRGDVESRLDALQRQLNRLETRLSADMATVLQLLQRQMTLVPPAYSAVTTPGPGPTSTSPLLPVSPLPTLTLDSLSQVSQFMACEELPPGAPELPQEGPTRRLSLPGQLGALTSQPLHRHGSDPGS", "assay": "In vitro hERG inhibition assay", "details": "maximum tested concentration of 100 μM"}, "[3]": {"test_system": "Hep-G2 cells", "assay": "RNA-seq differential gene expression vs DMSO control", "type": "cell-based, human", "experimental": "To obtain transcriptome level evidence that may shed light on the HCC-selectivity and/or the enhanced potency of the combination of STR-V-53 with anti-PD-1 antibody, we performed RNA sequencing (RNA-seq) analysis on STR-V-53-treated Hep-G2 cells, incubated at IC50 and 2× IC50 for 24 h, relative to the untreated (DMSO) control. We first conducted gene set enrichment analysis (GSEA) using hallmark and gene ontology biological process (GOBP) gene sets to analyze the effect of STR-V-53 vs DMSO-treated control on the Hep-G2 transcriptome.[42],[43] […] Negative enrichment of the G2 M checkpoint pathway supports the finding that STR-V-53 induced S phase arrest in Hep-G2 cells (see Figure 4).\nSubsequently, we focused our analysis on specific genes of interest, including gene signatures for HDAC inhibition and immune response pathways. […]\nand allowed to grow for 48 hours.\nRCF, with this washing step repeated twice. Next, using RNeasy Plus Mini Kit and Qiagen QIAcube […]\ndetermined using a DeNovix spectrophotometer. Subsequently, quality control of the RNA samples was […]\n(base call error rate of […]).\nFASTQ files of samples were analyzed through the RNA-seq pipeline provided by the Gryder lab1. Reads were aligned to hg38 using STAR version 2.5.3a, and gene expression was calculated as Transcripts per Million mapped reads (TPM) using RSEM version 1.3.3 and filtered for coding genes. Differentially expressed genes lists were generated for each sample by calculating log2 fold change of the averaged sample TPM versus the averaged DMSO-treated control cells TPM and filtering for genes with |log2 fold change| > -1 and false discovery rate < 0.25. Hallmark2 and gene ontology biological processes (GOBP)3 gene set enrichment analysis (GSEA) was performed on the differentially expressed gene lists using the GSEA software (parameters: Run GSEAPreranked, Collapse/Remap- No_Collapse)4. GSEA results were interpreted and visualized using scripts provided by the Gryder lab1.Volcano plots were generated using DESeq2v1.41.1 and visualized with the ggplot2 R packages5,6. […]"}, "[4]": {"target": "HDAC5 (Homo sapiens, UniProt Q9UQL6)", "sequence (Q9UQL6 whole entry, canonical isoform)": "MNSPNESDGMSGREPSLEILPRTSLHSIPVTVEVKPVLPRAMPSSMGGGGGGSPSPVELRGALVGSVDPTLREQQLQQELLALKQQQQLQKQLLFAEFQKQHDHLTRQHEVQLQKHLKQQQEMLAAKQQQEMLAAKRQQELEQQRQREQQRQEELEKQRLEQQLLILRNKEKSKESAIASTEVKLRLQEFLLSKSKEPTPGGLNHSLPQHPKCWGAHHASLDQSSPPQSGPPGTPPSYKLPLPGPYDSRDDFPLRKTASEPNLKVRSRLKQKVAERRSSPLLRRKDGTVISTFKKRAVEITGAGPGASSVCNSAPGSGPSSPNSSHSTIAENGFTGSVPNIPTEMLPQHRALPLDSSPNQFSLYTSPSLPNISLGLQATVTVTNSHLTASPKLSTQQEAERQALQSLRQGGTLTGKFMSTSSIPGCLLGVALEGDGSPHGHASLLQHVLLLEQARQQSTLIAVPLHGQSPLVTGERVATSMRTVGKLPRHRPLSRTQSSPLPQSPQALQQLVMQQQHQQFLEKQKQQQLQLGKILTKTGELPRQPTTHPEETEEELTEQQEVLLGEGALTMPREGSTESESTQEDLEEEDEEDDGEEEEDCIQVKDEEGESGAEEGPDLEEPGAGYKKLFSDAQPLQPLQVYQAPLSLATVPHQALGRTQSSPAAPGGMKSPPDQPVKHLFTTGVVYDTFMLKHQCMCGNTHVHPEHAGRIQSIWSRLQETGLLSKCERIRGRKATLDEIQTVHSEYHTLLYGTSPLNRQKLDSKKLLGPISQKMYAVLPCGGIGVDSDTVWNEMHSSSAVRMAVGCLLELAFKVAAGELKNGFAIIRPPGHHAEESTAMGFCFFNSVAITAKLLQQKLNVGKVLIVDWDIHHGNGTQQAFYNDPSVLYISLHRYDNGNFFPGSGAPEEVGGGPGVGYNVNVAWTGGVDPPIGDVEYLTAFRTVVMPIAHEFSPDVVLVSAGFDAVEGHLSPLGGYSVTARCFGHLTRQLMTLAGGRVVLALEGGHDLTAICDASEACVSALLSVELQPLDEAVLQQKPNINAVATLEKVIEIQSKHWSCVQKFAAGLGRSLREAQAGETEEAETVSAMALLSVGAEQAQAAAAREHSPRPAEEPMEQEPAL", "assay": "HDAC isoform inhibition (BPS Bioscience)"}}}
{"smiles": "O=C(CCCCCCn1cc(-c2ccc(O[C@H]3O[C@H](CO)[C@@H](O)[C@H](O)[C@H]3O)cc2)nn1)NO", "note": "[STR-V-53]", "values": [{"measurement": "Tumor growth inhibition (TGI)", "setting": "[1]; 25 mg/kg daily i.p. for 21 days", "result": 60, "unit": "%"}, {"measurement": "Tumor growth inhibition (TGI)", "setting": "[1]; 50 mg/kg daily i.p. for 21 days", "result": 68, "unit": "%"}, {"measurement": "hERG inhibition", "setting": "[2]", "result": "no inhibition"}, {"measurement": "ANP32B log2 fold change", "setting": "[3]; 2× IC50 (20 μM), 24 h", "result": "−2.3"}, {"measurement": "CCL16 log2 fold change", "setting": "[3]; 2× IC50 (20 μM), 24 h", "result": "−1.8"}, {"measurement": "CCL20 log2 fold change", "setting": "[3]; 2× IC50 (20 μM), 24 h", "result": 0.9}, {"measurement": "CCL25 log2 fold change", "setting": "[3]; 2× IC50 (20 μM), 24 h", "result": 1.2}, {"measurement": "CCL26 log2 fold change", "setting": "[3]; 2× IC50 (20 μM), 24 h", "result": 2.9}, {"measurement": "CDKN1A (p21) log2 fold change", "setting": "[3]; 2× IC50 (20 μM), 24 h", "result": 3.3}, {"measurement": "CX3CL1 log2 fold change", "setting": "[3]; 2× IC50 (20 μM), 24 h", "result": "−1.7"}, {"measurement": "CXCL8 log2 fold change", "setting": "[3]; 2× IC50 (20 μM), 24 h", "result": "−2.0"}, {"measurement": "CXCL11 log2 fold change", "setting": "[3]; 2× IC50 (20 μM), 24 h", "result": 1.3}, {"measurement": "DKK-1 log2 fold change", "setting": "[3]; 2× IC50 (20 μM), 24 h", "result": 6.2}, {"measurement": "MT1X log2 fold change", "setting": "[3]; 2× IC50 (20 μM), 24 h", "result": 3.4}, {"measurement": "PDCD1 log2 fold change", "setting": "[3]; 2× IC50 (20 μM), 24 h", "result": 3.0}, {"measurement": "TUBA1A log2 fold change", "setting": "[3]; 2× IC50 (20 μM), 24 h", "result": 5.4}, {"measurement": "TYMS log2 fold change", "setting": "[3]; 2× IC50 (20 μM), 24 h", "result": "−3.6"}, {"measurement": "Expression of MHC (HLA) complex, CD8+, and PD-1 (PDCD1) /PD-L1 (CD274) genes", "setting": "[3]; Hep-G2, RNA-seq, 24 h", "result": "upregulates"}, {"measurement": "Expression of GLUTs 1, 2, 9, and 14", "setting": "[3]; Hep-G2, within 24 h of uptake", "result": "downregulation"}, {"measurement": "Expression of GLUTs 3, 4, 6, and 12", "setting": "[3]; Hep-G2, within 24 h of uptake", "result": "upregulation"}, {"measurement": "ANP32B log2 fold change", "setting": "[3]; IC50 (10 μM), 24 h", "result": "−1.8"}, {"measurement": "CCL16 log2 fold change", "setting": "[3]; IC50 (10 μM), 24 h", "result": "−1.0"}, {"measurement": "CCL20 log2 fold change", "setting": "[3]; IC50 (10 μM), 24 h", "result": 1.9}, {"measurement": "CCL25 log2 fold change", "setting": "[3]; IC50 (10 μM), 24 h", "result": 0.9}, {"measurement": "CCL26 log2 fold change", "setting": "[3]; IC50 (10 μM), 24 h", "result": 2.1}, {"measurement": "CDKN1A (p21) log2 fold change", "setting": "[3]; IC50 (10 μM), 24 h", "result": 3.1}, {"measurement": "CX3CL1 log2 fold change", "setting": "[3]; IC50 (10 μM), 24 h", "result": "−1.5"}, {"measurement": "CXCL8 log2 fold change", "setting": "[3]; IC50 (10 μM), 24 h", "result": "−1.6"}, {"measurement": "CXCL11 log2 fold change", "setting": "[3]; IC50 (10 μM), 24 h", "result": 1.1}, {"measurement": "DKK-1 log2 fold change", "setting": "[3]; IC50 (10 μM), 24 h", "result": 6.5}, {"measurement": "MT1X log2 fold change", "setting": "[3]; IC50 (10 μM), 24 h", "result": 2.9}, {"measurement": "PDCD1 log2 fold change", "setting": "[3]; IC50 (10 μM), 24 h", "result": 2.1}, {"measurement": "TUBA1A log2 fold change", "setting": "[3]; IC50 (10 μM), 24 h", "result": 4.7}, {"measurement": "TYMS log2 fold change", "setting": "[3]; IC50 (10 μM), 24 h", "result": "−3.2"}, {"measurement": "IC50", "setting": "[4]", "result": 7, "unit": "µM"}]}
